Several values for one entry are separate records, joined by “and”; a condition that tells them apart may be missing. Identical values can stand only once.
How the values were obtained:
[1] = tested on: matrix of cartilages of the tibial plateau of STR/ORT mice; assay: Quantitative interference microscopy of dry mass per unit area in the tibial plateau cartilage matrix of treated STR/ORT mice; format: in vivo; settings: for effect on the dry mass per unit area (and therefore water content) of medial cartilage: feeding STR/ORT mice
Text: The extra-cellular factor was studied by quantitative interference microscopy, as described by Ross, “Phase Contrast and Interference Microscopy for Cell Biologists” Arnold: London, p.36 (1967). This form of microscopy allows the investigator to measure the dry mass, per unit area (Cs), in selected regions of a section or of a cell. This measurement then allows the assessment of water content (Cw): […]

[2] = tested on: STR/ORT mice; assay: Development of osteoarthritis / cartilage damage in STR/ORT mice; format: in vivo; settings: fraction of mice
Text: The present invention is based on the postulate that two influences are involved in the development of OA: a cellular and an extracellular factor.

[3] = tested on: STR/ORT mice; settings: mice given the drug; background; cited from earlier work
[4] = tested on: monoamine oxidase (MAO); settings: mice given the drug; background, Chambers et al 1992; cited from earlier work
[5] = tested on: monoamine oxidase (MAO); assay: Localisation of monoamine oxidase (MAO) activity in chondrocytes of potentially osteoarthritic cartilage of mice; format: in vivo; settings: feeding STR/ORT mice
Text: In normal articular cartilage (human as well as murine), monoamine oxidase in chondrocytes can be found located precisely in mitochondria. During the development of the natural disease in mice, these granules become larger and apparently burst, the monoamine oxidase (MAO) activity becomes distributed through the cytoplasm of the chondrocytes and even into the surrounding matrix. This was described by Chambers et al, Int. J. Exp. Path. 73:115-123 (1992), who related the MAO activity in the medial as against that in the (normal) lateral cartilage in untreated mice and in those treated with diclofenac.
There was no sign of activity in the general cytoplasm or in the matrix.
Results are shown in Table 1, i.e. the dry mass per μm in the matrix of cartilages of the tibial plateau of STR/ORT mice after various treatments. Three mice were treated with diclofenac (Df) alone, four with tribenoside (Tb) alone, and four with both (Df+Tb).

[6] = STR/ORT mice, matrix of tibial plateau cartilage, one line per mouse, * duplicate sections

| SMILES | Mass pg/unit area in the medial cartilage [1, 6] | effect on the dry mass per unit area (and therefore water content) of medial cartilage [1] | mice having severe OA [2] | development of OA [3] | localisation of the MAO in the potentially osteoarthritic cartilage [4] | Mass pg/unit area in the lateral cartilage [1, 6] [pg/unit area] | localisation of MAO activity / MAO activity in the medial cartilage [5] |
| --- | --- | --- | --- | --- | --- | --- | --- |
| O=C(O)Cc1ccccc1Nc1c(Cl)cccc1Cl [Df, diclofenac sodium] | 0.51 pg/unit area and 0.50 pg/unit area and 0.52 pg/unit area | no effect | at least 9/10 | did not stop the development of OA | marked improvement | – | – |
| CCOC1O[C@H]([C@@H](COCc2ccccc2)OCc2ccccc2)[C@H](OCc2ccccc2)[C@H]1O (stereo partly drawn) [Tb, tribenoside] | 2.54 pg/unit area and 2.76 pg/unit area and 2.58 pg/unit area and 2.77 pg/unit area and 2.29 pg/unit area and 2.44 pg/unit area and 3.14 pg/unit area | markedly increased | – | – | – | 2.84 | did not improve |

— US6369107B1, “Combined use of diclofenac and tribenoside to treat osteoarthritis” (KS Biomedix Ltd., priority 1994, dated 2002)
